Measurements from patent US20230117470A1, “SUBSTITUTED PYRAZOLE COMPOUNDS AS TOLL RECEPTOR INHIBITORS” (BRISTOL-MYERS SQUIBB COMPANY, priority 2019, published 2023).

What was measured:
Assay type in all cases: cell-based
[1] = molecular target: T1, human TLR7 (Homo sapiens, UniProt Q9NYK1); assay: TLR7 inhibition reporter assay (HEK-Blue cells, SEAP reporter, gardiquimod stimulation); conditions: HEK-Blue cells overexpressing human TLR7, SEAP reporter, gardiquimod 7.5 μM
T1 construct: host or cells: HEK-Blue cells
T1 sequence (Q9NYK1 27-1049): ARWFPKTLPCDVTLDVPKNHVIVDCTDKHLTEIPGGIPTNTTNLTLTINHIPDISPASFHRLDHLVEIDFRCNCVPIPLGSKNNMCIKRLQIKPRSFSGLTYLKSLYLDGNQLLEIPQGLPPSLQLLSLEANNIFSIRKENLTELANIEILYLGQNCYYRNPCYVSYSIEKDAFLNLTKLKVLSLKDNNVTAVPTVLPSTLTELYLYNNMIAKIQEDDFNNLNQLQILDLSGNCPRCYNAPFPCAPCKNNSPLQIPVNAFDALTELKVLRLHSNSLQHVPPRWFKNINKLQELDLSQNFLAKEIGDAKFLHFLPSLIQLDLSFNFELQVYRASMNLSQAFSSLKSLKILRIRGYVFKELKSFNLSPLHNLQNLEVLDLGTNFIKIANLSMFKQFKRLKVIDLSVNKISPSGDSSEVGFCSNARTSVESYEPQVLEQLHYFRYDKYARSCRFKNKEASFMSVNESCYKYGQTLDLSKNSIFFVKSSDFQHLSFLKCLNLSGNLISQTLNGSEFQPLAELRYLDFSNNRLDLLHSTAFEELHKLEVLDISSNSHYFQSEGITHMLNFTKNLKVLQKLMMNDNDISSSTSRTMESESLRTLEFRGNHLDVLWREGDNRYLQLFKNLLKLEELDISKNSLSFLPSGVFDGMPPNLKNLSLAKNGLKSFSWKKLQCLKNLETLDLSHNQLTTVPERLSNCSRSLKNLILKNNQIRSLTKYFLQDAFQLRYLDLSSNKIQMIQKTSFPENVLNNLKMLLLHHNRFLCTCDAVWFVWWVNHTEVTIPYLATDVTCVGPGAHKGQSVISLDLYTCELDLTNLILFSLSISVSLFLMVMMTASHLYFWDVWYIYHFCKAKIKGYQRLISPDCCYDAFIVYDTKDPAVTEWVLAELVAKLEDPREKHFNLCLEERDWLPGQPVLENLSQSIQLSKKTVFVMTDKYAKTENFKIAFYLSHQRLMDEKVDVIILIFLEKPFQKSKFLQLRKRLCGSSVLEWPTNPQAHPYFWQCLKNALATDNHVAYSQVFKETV
In short: (§1)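 30 min RT cpd pre-incubation (0.05 nM–50 μM final dose response) → agonist: gardiquimod 7.5 μM / R848 15.9 μM / ODN2006 5 nM for TLR7/8/9 resp. → 22 h, 37° C → SEAP via detection medium. % inhibition vs agonist+DMSO and reference inhibitor controls.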

[2] = molecular target: T2, human TLR8 (Homo sapiens, UniProt Q9NR97); assay: TLR8 inhibition reporter assay (HEK-Blue cells, SEAP reporter, R848 stimulation); conditions: HEK-Blue cells overexpressing human TLR8, SEAP reporter, R848 15.9 μM
T2 construct: host or cells: HEK-Blue cells
T2 sequence (Q9NR97 27-1041): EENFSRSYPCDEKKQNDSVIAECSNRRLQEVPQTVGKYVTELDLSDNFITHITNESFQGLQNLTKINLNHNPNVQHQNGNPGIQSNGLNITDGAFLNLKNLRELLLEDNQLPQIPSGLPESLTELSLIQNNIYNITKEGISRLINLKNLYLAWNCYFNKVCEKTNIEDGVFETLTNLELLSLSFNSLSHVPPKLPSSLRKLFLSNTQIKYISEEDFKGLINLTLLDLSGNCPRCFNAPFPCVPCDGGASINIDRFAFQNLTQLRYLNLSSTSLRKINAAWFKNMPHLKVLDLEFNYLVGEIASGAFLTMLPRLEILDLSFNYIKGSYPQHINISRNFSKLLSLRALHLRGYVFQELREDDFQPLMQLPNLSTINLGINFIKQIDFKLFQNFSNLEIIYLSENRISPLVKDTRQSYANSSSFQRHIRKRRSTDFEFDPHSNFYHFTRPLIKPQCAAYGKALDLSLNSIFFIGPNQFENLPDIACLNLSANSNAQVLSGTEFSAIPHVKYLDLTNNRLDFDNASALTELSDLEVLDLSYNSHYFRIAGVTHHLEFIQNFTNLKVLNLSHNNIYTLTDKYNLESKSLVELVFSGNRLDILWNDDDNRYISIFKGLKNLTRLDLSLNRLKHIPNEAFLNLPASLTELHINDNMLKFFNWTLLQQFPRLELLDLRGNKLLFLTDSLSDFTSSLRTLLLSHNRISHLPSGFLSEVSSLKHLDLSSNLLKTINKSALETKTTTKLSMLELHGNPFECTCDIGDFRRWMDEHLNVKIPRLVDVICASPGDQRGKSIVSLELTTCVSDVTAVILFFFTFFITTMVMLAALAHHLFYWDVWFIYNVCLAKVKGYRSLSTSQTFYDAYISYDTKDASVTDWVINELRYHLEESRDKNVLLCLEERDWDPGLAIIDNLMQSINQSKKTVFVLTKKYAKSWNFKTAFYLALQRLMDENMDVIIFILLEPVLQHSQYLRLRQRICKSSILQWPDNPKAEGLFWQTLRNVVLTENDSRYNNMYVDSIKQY
In short: as §1

[3] = molecular target: T3, human TLR9 (Homo sapiens, UniProt Q9NR96); assay: TLR9 inhibition reporter assay (HEK-Blue cells, SEAP reporter, ODN2006 stimulation); conditions: HEK-Blue cells overexpressing human TLR9, SEAP reporter, ODN2006 5 nM
T3 construct: host or cells: HEK-Blue cells
T3 sequence (Q9NR96 26-1032): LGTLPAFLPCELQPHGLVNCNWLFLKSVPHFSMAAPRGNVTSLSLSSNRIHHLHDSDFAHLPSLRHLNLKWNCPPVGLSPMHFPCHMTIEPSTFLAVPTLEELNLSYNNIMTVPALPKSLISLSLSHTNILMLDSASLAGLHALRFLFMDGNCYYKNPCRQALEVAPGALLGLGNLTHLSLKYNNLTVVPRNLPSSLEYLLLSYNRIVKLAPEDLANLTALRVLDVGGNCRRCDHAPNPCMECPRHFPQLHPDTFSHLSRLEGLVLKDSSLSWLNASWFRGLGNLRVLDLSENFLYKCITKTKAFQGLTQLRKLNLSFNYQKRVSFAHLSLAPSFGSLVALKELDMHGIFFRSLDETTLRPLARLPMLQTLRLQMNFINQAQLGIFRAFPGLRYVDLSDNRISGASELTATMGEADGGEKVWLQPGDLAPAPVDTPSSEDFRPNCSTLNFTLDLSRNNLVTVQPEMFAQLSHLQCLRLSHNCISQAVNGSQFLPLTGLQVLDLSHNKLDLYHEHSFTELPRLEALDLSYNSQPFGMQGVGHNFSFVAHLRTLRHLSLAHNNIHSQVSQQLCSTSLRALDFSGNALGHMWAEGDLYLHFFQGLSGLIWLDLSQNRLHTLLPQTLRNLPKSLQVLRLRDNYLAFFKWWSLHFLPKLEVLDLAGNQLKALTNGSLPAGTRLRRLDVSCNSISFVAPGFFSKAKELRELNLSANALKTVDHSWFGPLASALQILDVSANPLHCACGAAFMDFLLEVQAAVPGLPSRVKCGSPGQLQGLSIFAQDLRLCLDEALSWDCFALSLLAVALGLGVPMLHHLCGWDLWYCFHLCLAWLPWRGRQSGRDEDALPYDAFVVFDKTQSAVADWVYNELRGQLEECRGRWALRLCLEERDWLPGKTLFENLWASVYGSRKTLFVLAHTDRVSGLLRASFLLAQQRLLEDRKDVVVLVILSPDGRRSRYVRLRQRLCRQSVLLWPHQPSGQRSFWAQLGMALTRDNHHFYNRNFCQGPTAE
In short: as §1

Row | SMILES | IC50 [1] [nM] | IC50 [2] [nM] | IC50 [3] [nM]
1 | Cc1cc(-c2[nH]nc(C(=O)N[C@H]3CC[C@@H](N(CCC(C)C)CCC(C)C)CC3)c2C(C)C)cn2ncnc12 [Example 91] | 4.01 | 8.12 | 6720
2 | Cc1cc(-c2[nH]nc(C(=O)N[C@H]3CC[C@@H](NCC4CCOCC4)CC3)c2C(C)C)cn2ncnc12 [Example 92] | 0.31 | 2.34 | 4110
3 | Cc1noc(C)c1CN[C@H]1CC[C@@H](NC(=O)c2n[nH]c(-c3cc(C)c4ncnn4c3)c2C(C)C)CC1 [Example 93] | 1.89 | 15.6 | 12000
4 | Cc1cc(-c2[nH]nc(C(=O)N[C@H]3CC[C@@H](NCC4CCCC4)CC3)c2C(C)C)cn2ncnc12 [Example 94] | 1.94 | 3.14 | 40700
5 | Cc1cc(-c2[nH]nc(C(=O)N[C@H]3CC[C@@H](NCc4cccnc4)CC3)c2C(C)C)cn2ncnc12 [Example 95] | 11.7 | 23.8 | 43200
6 | COc1ncc(CN[C@H]2CC[C@@H](NC(=O)c3n[nH]c(-c4cc(C)c5ncnn5c4)c3C(C)C)CC2)cn1 [Example 96] | 1.53 | 0.98 | 7770
7 | Cc1cc(-c2[nH]nc(C(=O)N[C@H]3CC[C@@H](NC4CCOC(C)(C)C4)CC3)c2C(C)C)cn2ncnc12 (stereo partly drawn) [Example 97] | 2.42 | 41.9 | 5490
8 | Cc1cc(-c2[nH]nc(C(=O)N[C@H]3CC[C@@H](NC4CCOCC4)CC3)c2C(C)C)cn2ncnc12 [Example 98] | 0.12 | 1.37 | 2980
9 | Cc1cc(-c2[nH]nc(C(=O)N[C@H]3CC[C@@H](NC(C)C(C)C)CC3)c2C(C)C)cn2ncnc12 (stereo partly drawn) [Example 99] | 1.19 | 36.7 | 3610
10 | CCC(CC)N[C@H]1CC[C@@H](NC(=O)c2n[nH]c(-c3cc(C)c4ncnn4c3)c2C(C)C)CC1 [Example 100] | 78.9 | 114 | 6400
11 | CCC(CC)CN[C@H]1CC[C@@H](NC(=O)c2n[nH]c(-c3cc(C)c4ncnn4c3)c2C(C)C)CC1 [Example 101] | 3.68 | 23 | 4790
12 | Cc1cc(-c2[nH]nc(C(=O)N[C@H]3CC[C@@H](NCc4cncnc4)CC3)c2C(C)C)cn2ncnc12 [Example 102] | 0.37 | 14 | 3890
13 | Cc1cc(-c2[nH]nc(C(=O)N[C@H]3CC[C@H](N(CC4CC4)CC4CC4)CC3)c2C(C)C)cn2ncnc12 [Example 103] | 48 | 3.46 | 3600
14 | Cc1ncc(CN[C@H]2CC[C@H](NC(=O)c3n[nH]c(-c4cc(C)c5ncnn5c4)c3C(C)C)CC2)cn1 [Example 104] | 1.98 | 2.81 | 5600
15 | Cc1cc(-c2[nH]nc(C(=O)N[C@H]3CC[C@H](NCC4CCOC4)CC3)c2C(C)C)cn2ncnc12 (stereo partly drawn) [Example 105] | 1.38 | 43.2 | 2180
16 | Cc1cc(-c2[nH]nc(C(=O)N[C@H]3CC[C@H](NCC(C)(C)C)CC3)c2C(C)C)cn2ncnc12 [Example 106] | 2.25 | 90.9 | 14300
17 | Cc1cc(-c2[nH]nc(C(=O)N[C@H]3CC[C@H](N(CCC(C)(C)C)CCC(C)(C)C)CC3)c2C(C)C)cn2ncnc12 [Example 107] | 3.6 | 190 | 15400
18 | Cc1cc(-c2[nH]nc(C(=O)N[C@H]3CC[C@H](N(CCC(C)C)CCC(C)C)CC3)c2C(C)C)cn2ncnc12 [Example 108] | 1.34 | 4.49 | 5700
19 | Cc1cc(-c2[nH]nc(C(=O)N[C@H]3CC[C@H](NCC4CCCC4)CC3)c2C(C)C)cn2ncnc12 [Example 109] | 6.81 | 27.9 | 6090
20 | CCC(CC)CN[C@H]1CC[C@H](NC(=O)c2n[nH]c(-c3cc(C)c4ncnn4c3)c2C(C)C)CC1 [Example 110] | 2.21 | 0.93 | 5780
21 | Cc1cc(-c2[nH]nc(C(=O)N[C@H]3CC[C@H](NCC4CCOCC4)CC3)c2C(C)C)cn2ncnc12 [Example 111] | 2.97 | 33.7 | 3930
22 | Cc1cc(-c2[nH]nc(C(=O)N[C@H]3CC[C@H](NCc4cccnc4)CC3)c2C(C)C)cn2ncnc12 [Example 112] | 11.4 | 28.3 | > 50000
23 | Cc1cc(-c2[nH]nc(C(=O)N[C@H]3CC[C@H](NCc4cncnc4)CC3)c2C(C)C)cn2ncnc12 [Example 113] | 1.09 | 27.1 | 7800
24 | COc1ncc(CN[C@H]2CC[C@H](NC(=O)c3n[nH]c(-c4cc(C)c5ncnn5c4)c3C(C)C)CC2)cn1 [Example 114] | 3.63 | 1.4 | 1460
25 | Cc1cc(-c2[nH]nc(C(=O)N[C@H]3CC[C@H](NC4CCOC(C)(C)C4)CC3)c2C(C)C)cn2ncnc12 (stereo partly drawn) [Example 115] | 11.7 | 17 | 1210
